OC[C@H]1O[C@H](O[C@]2(CCl)O[C@H](CCl)[C@@H](O)[C@@H]2O)[C@H](O)[C@@H](O)[C@H]1Cl
solubility (mole fraction)
Settings	in ethanol	in isopropanol	in methanol	in water
283.15 K	0.00843	–	0.0307	0.0107
288.15 K	0.00976	0.00389	0.0315	0.0115
293.15 K	0.012	0.0044	0.0328	0.0123
298.15 K	0.0143	0.00533	0.0343	0.0146
303.15 K	0.0158	0.00624	0.0362	0.0164
308.15 K	0.0184	0.00789	0.0383	0.0182
313.15 K	0.0202	0.00854	0.0415	0.0195
318.15 K	0.0228	0.011	0.0449	0.0223
323.15 K	0.0248	0.0128	0.0485	0.0259
328.15 K	0.0281	0.015	0.0524	0.0285
333.15 K	0.0322	0.0171	0.0596	0.0314
